Reference: US10285983B2, “3-(1H-pyrrolo[2,3-B]pyridin-2-yl)-1H-pyrazolo[3,4-B] pyridines and therapeutic uses thereof” (Samumed, LLC, priority 2015, dated 2019)
pEC50: −log10 of the molar value.

Tests used:
Assay type in all cases: cell-based
SW480 colon cancer cells = assay: Cell viability assay (CellTiter-Blue); conditions: Homo sapiens, 96 h, four days; for inhibition at 10 µM: given for EC50 >10 μM, read-out: percent inhibition at 10 μM
In short: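 SW480 colon cancer cells (~2×10^3/well) exposed to 8-point 1:3 dilutions from 10 μM to 0.0045 μM for four days at 37 °C/5% CO2. Viability read by resazurin (CellTiter-Blue) fluorescence after ~3 h, Ex 560/Em 590 nm. EC50 from non-linear regression; percent inhibition at 10 μM given when EC50 >10 μM.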

[1] = system: primary human fibroblasts derived from IPF patients (LL29 cells); assay: Inhibition of fibrotic process, αSMA staining in TGF-β1 treated LL29 fibroblasts; conditions: Fibroblast, 96 h, TGF-β1 20 ng/mL, 4 days; for pEC50: % αSMA positive cells; for inhibition at 10 µM: given for EC50 >10 μM, read-out: percent inhibition at 10 μM
In short: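 IPF-patient LL29 lung fibroblasts in 1% FBS medium received compound (11-point, 1:2 dilution, 0.1% DMSO) plus TGF-β1 20 ng/mL, 4 days at 37 °C. Percent αSMA-positive cells among SYTOX-negative cells quantified by immunofluorescence imaging, normalized to TGF-β1/DMSO wells. EC50 by non-linear regression on triplicates; above 10 μM, % inhibition at 10 μM given.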

[2] = system: IL-6 (THP-1 human monocyte cell line); assay: IL-6 inhibition in LPS-stimulated THP-1 cells (HTRF); conditions: LPS 500 ng/mL; for pEC50: 22 hours, IL6 HTRF; for inhibition at 10 µM: given for EC50 >10 μM, read-out: percent inhibition at 10 μM
In short: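 THP-1 cells, serum-reduced to 1% FBS for 24 h, preincubated 2 h at 37° C with compound (10-point, 1:3 series, 0.1% DMSO), then stimulated with 500 ng/mL LPS for 22 h. IL-6 quantified by HTRF 665/620 nm ratio, normalized to DMSO; EC50 by four-parameter fit, else percent inhibition at 10 μM.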

Row | SMILES | pEC50 (SW480 colon cancer cells) | inhibition at 10 µM (SW480 colon cancer cells) | pEC50 [1] | pEC50 [2] | inhibition at 10 µM [1] | inhibition at 10 µM [2]
1 | O=C(Nc1cncc(-c2cnc3[nH]nc(-c4cc5c(-c6ccccc6F)ccnc5[nH]4)c3c2)c1)C1CCCC1 [Compound 78, N-(5-(3-(4-(2-Fluorophenyl)-1H-pyrrolo[2,3-b]pyridin-2-yl)-1H-pyrazolo [3,4-b]pyridin-5-yl)pyridin-3-yl)cyclopentanecarboxamide] | < 5.00 | 11.3% | 5.15 | 6.20 | – | –
2 | CN(C)c1cncc(-c2cnc3[nH]nc(-c4cc5c(-c6cccs6)ccnc5[nH]4)c3c2)c1 [Compound 343, N,N-Dimethyl-5-(3-(4-(thiophen-2-yl)-1H-pyrrolo[2,3-b]pyridin-2-yl)-1H-pyrazolo[3,4-b]pyridin-5-yl)pyridin-3-amine] | < 5.00 | 36.8% | 5.76 | 7.49 | – | –
3 | Cc1ccncc1-c1cnc2[nH]nc(-c3cc4c(-c5ccncc5)ccnc4[nH]3)c2c1 [Compound 117, 5-(4-Methylpyridin-3-yl)-3-(4-(pyridin-4-yl)-1H-pyrrolo[2,3-b]pyridin-2-yl)-1H-pyrazolo[3,4-b]pyridine] | < 5.00 | 10.1% | < 5.00 | < 5.00 | 52.9% | 17.1%
4 | Cc1ccncc1-c1cnc2[nH]nc(-c3cc4c(-c5ccc(F)cc5)ccnc4[nH]3)c2c1 [Compound 33, 3-(4-(4-Fluorophenyl)-1H-pyrrolo[2,3-b]pyridin-2-yl)-5-(4-methylpyridin-3-yl)-1H-pyrazolo[3,4-b]pyridine] | < 5.00 | 25% | 5.35 | < 5.00 | – | 27.7%
5 | CCNCc1cncc(-c2cnc3[nH]nc(-c4cc5c(-c6cccnc6)ccnc5[nH]4)c3c2)c1 [Compound 90, N-((5-(3-(4-(Pyridin-3-yl)-1H-pyrrolo[2,3-b]pyridin-2-yl)-1H-pyrazolo[3,4-b]pyridin-5-yl)pyridin-3-yl)methyl)ethanamine] | < 5.00 | 17% | < 5.00 | 5.27 | 5.1% | –
6 | c1cncc(-c2ccnc3[nH]c(-c4n[nH]c5ncc(-c6cncc(CN7CCCCC7)c6)cc45)cc23)c1 [Compound 99, 5-(5-(Piperidin-1-ylmethyl)pyridin-3-yl)-3-(4-(pyridin-3-yl)-1H-pyrrolo[2,3-b]pyridin-2-yl)-1H-pyrazolo[3,4-b]pyridine] | < 5.00 | 9.6% | < 5.00 | < 5.00 | 73.8% | 37%
7 | CC(C)CC(=O)Nc1cncc(-c2cnc3[nH]nc(-c4cc5c(-c6cccnc6)ccnc5[nH]4)c3c2)c1 [Compound 86, 3-Methyl-N-(5-(3-(4-(pyridin-3-yl)-1H-pyrrolo[2,3-b]pyridin-2-yl)-1H-pyrazolo[3,4-b]pyridin-5-yl)pyridin-3-yl)butanamide] | < 5.00 | 24.1% | < 5.00 | < 5.00 | 0% | 34.3%
8 | CC(C)Nc1cncc(-c2cnc3[nH]nc(-c4cc5c(-c6cccnc6)ccnc5[nH]4)c3c2)c1 [Compound 96, N-Isopropyl-5-(3-(4-(pyridin-3-yl)-1H-pyrrolo[2,3-b]pyridin-2-yl)-1H-pyrazolo[3,4-b]pyridin-5-yl)pyridin-3-amine] | < 5.00 | 14.3% | 5.81 | 7.03 | – | –
9 | Fc1ccc(-c2ccnc3[nH]c(-c4n[nH]c5ncc(-c6cncc(CN7CCC(F)(F)C7)c6)cc45)cc23)cc1 [Compound 54, 5-(5-((3,3-Difluoropyrrolidin-1-yl)methyl)pyridin-3-yl)-3-(4-(4-fluorophenyl)-1H-pyrrolo[2,3-b]pyridin-2-yl)-1H-pyrazolo[3,4-b]pyridine] | < 5.00 | 6.9% | 5.31 | < 5.00 | – | 32.3%
10 | CCC(=O)Nc1cncc(-c2cnc3[nH]nc(-c4cc5c(N6CCCCC6)ccnc5[nH]4)c3c2)c1 [Compound 169, N-(5-(3-(4-(Piperidin-1-yl)-1H-pyrrolo[2,3-b]pyridin-2-yl)-1H-pyrazolo[3,4-b]pyridin-5-yl)pyridin-3-yl)propionamide] | < 5.00 | 36.1% | 5.53 | 5.32 | – | –
11 | O=C(Nc1cncc(-c2cnc3[nH]nc(-c4cc5cccnc5[nH]4)c3c2)c1)c1ccccc1 [Compound 263, N-(5-(3-(1H-Pyrrolo[2,3-b]pyridin-2-yl)-1H-pyrazolo[3,4-b]pyridin-5-yl)pyridin-3-yl)benzamide] | < 5.00 | 21.1% | 6.44 | 6.51 | – | –
12 | CN(C)Cc1cncc(-c2cnc3[nH]nc(-c4cc5c(-c6cccc(F)c6)ccnc5[nH]4)c3c2)c1 [Compound 13, 1-(5-(3-(4-(3-Fluorophenyl)-1H-pyrrolo[2,3-b]pyridin-2-yl)-1H-pyrazolo [3,4-b]pyridin-5-yl)pyridin-3-yl)-N,N-dimethylmethanamine] | < 5.00 | 11.6% | < 5.00 | < 5.00 | 5.2% | 27.5%
13 | O=C(CC1CCNCC1)Nc1cncc(-c2cnc3[nH]nc(-c4cc5c(-c6ccncc6)ccnc5[nH]4)c3c2)c1 [Compound 577] | < 5.00 | 8.7% | 5.85 | < 5.00 | – | 0%
14 | Nc1cncc(-c2cnc3[nH]nc(-c4cc5c(-c6ccncc6)ccnc5[nH]4)c3c2)c1 [Compound 115, 5-(3-(4-(Pyridin-4-yl)-1H-pyrrolo[2,3-b]pyridin-2-yl)-1H-pyrazolo[3,4-b]pyridin-5-yl)pyridin-3-amine] | < 5.00 | 0% | 5.23 | < 5.00 | – | 40.6%
15 | O=C(Nc1cncc(-c2cnc3[nH]nc(-c4cc5c(-c6cccc(F)c6)ccnc5[nH]4)c3c2)c1)C1CC1 [Compound 20, N-(5-(3-(4-(3-Fluorophenyl)-1H-pyrrolo[2,3-b]pyridin-2-yl)-1H-pyrazolo [3,4-b]pyridin-5-yl)pyridin-3-yl)cyclopropanecarboxamide] | < 5.00 | 51.4% | 5.58 | 5.67 | – | –
16 | c1cc(N2CCCCC2)c2cc(-c3n[nH]c4ncc(-c5cncc(CN6CCCC6)c5)cc34)[nH]c2n1 [Compound 182, 3-(4-(Piperidin-1-yl)-1H-pyrrolo[2,3-b]pyridin-2-yl)-5-(5-(pyrrolidin-1-ylmethyl)pyridin-3-yl)-1H-pyrazolo[3,4-b]pyridine] | < 5.00 | 26% | < 5.00 | 6.33 | 21.9% | –
17 | CC(C)(C)CC(=O)Nc1cncc(-c2cnc3[nH]nc(-c4cc5c(-c6ccccc6F)ccnc5[nH]4)c3c2)c1 [Compound 72, N-(5-(3-(4-(2-Fluorophenyl)-1H-pyrrolo[2,3-b]pyridin-2-yl)-1H-pyrazolo [3,4-b]pyridin-5-yl)pyridin-3-yl)-3,3-dimethylbutanamide] | < 5.00 | 14.7% | 6.12 | < 5.00 | – | 38.1%
18 | c1csc(-c2ccnc3[nH]c(-c4n[nH]c5ncc(-c6cncc(OC7CCCCC7)c6)cc45)cc23)c1 [Compound 703, 5-(5-(Cyclohexyloxy)pyridin-3-yl)-3-(4-(thiophen-2-yl)-1H-pyrrolo[2,3-b]pyridin-2-yl)-1H-pyrazolo[3,4-b]pyridine] | < 5.00 | 23.3% | 5.60 | < 5.00 | – | 11%
19 | CN1CCN(c2ccnc3[nH]c(-c4n[nH]c5ncc(-c6cn[nH]c6)cc45)cc23)CC1 [Compound 635, 3-(4-(4-Methylpiperazin-1-yl)-1H-pyrrolo[2,3-b]pyridin-2-yl)-5-(1H-pyrazol-4-yl)-1H-pyrazolo[3,4-b]pyridine] | < 5.00 | 3.6% | < 5.00 | < 5.00 | 26% | 21.4%
20 | c1ccc(CNCc2cncc(-c3cnc4[nH]nc(-c5cc6c(-c7ccncc7)ccnc6[nH]5)c4c3)c2)cc1 [Compound 136, N-Benzyl-1-(5-(3-(4-(pyridin-4-yl)-1H-pyrrolo[2,3-b]pyridin-2-yl)-1H-pyrazolo[3,4-b]pyridin-5-yl)pyridin-3-yl)methanamine] | < 5.00 | 14.9% | 5.52 | < 5.00 | – | 23.5%
21 | c1ncc(-c2cnc3[nH]nc(-c4cc5c(N6CCCCC6)ccnc5[nH]4)c3c2)cn1 [Compound 195, 3-(4-(Piperidin-1-yl)-1H-pyrrolo[2,3-b]pyridin-2-yl)-5-(pyrimidin-5-yl)-1H-pyrazolo[3,4-b]pyridine] | < 5.00 | 13.9% | 5.36 | < 5.00 | – | 49.8%
